Reference: article PMC5902495, “Synthesis of Symmetrical Tetrameric Conjugates of the Radiolanthanide Chelator DOTPI for Application in Endoradiotherapy by Means of Click Chemistry” (Frontiers in Chemistry, 2018)

Experiment: Stability and protonation constants of Cu^II complexes (spectrophotometry, pH-potentiometry)
Assay type: physicochemical
Details: 25°C, 0.15 M NaCl
Protocol: Stability constant of Cu(DOTPI) complex was determined by spectrophotometry, studying the Cu^II-DOTPI systems at the absorption band of Cu^II-complex at [H^+] = 0.01– 0.2 M over the wavelength range of 400–800 nm. Concentrations of Cu^II and DOTPI were 1 mM. The H^+ concentration in the samples was adjusted by addition of calculated amounts of 2.0 M HCl, while ionic strength was not constant in these samples. Samples were kept at 25°C for a week. Absorbance values were determined at 9 wavelengths (550, 575, 600, 625, 650, 675, 700, 725, and 750 nm). For calculation of stability and protonation constants of Cu(DOTPI), molar absorptivities of CuCl2, and Cu(HxL) species (wherein x = 0, 1, 2 …5) were determined by recording the spectra of 1.0 × 10^−3, 2.0 × 10^−3 and 3.0 × 10^−3 M solutions of CuCl2 and Cu(DOTPI) in the pH range of 1.7–11.7. The protonation constants of the complexes Cu(DOTPI) and the stability and protonation constants of the dinuclear Cu2(DOTPI) complexes were determined by pH-potentiometric titrations, made at 1:1 and 2:1 metal to ligand concentration ratios.
The stability constant of the Cu(DOTPI(Chx)4) complex has been determined by spectrophotometry with the use of competition reactions between DOTPI(Chx)4 and EDTA for the Cu^2+ at pH = 5.0. The concentration of Cu(EDTA) was 0.2 mM, while that of the DOTPI(Chx)4 was varied between 0.1 and 1.0 mM (5 samples). The samples were kept at 25°C for 2 weeks. The absorbance values and the molar absorptivities of CuCl2, Cu(DOTPI(Chx)4), and Cu(EDTA) have been determined at 11 wavelength (300, 304, 308, 312, 316, 320, 324, 328, 332, 336, and 340 nm) values between 300 and 340 nm. The molar absorptivities of CuCl2, Cu(DOTPI(Chx)4), and Cu(EDTA) were deteremined in 0.05, 0.1, 0.2, 0.3, and 0.4 mM solutions. The absorbance and pH values were determined in the samples after the equilibrium was reached (the time needed to reach the equilibria was determined by spectrophotometry). The spectrophotometric measurements were made with the use of 1.0 cm cells with a Cary 1E spectrophotometer at 25°C. The protonation constants of Cu(DOTPI(Chx)4) complex were determined by pH-potentiometric titrations at 1:1 metal to ligand molar ratio.
For pH measurements and titrations, a Metrohm 785 DMP Titrino titration workstation and a Metrohm-6.0233.100 combined electrode were used. Equilibrium measurements were carried out at a constant ionic strength (0.15 M NaCl) in 6 mL samples at 25°C. The solutions were stirred, and constantly purged with N2. The titrations were performed in a pH range of 1.7–11.7. KH-phthalate (pH = 4.005) and borax (pH = 9.177) buffers were used to calibrate the pH meter. For calculation of [H^+] from measured pH values, the method proposed by Irving et al. was used (Irving et al., [1967]). A 0.01 M HCl solution was titrated with the standardized NaOH solution in the presence of 0.1 M NaCl. Differences between the measured (pHread) and calculated pH (–log[H^+]) values were used to obtain the equilibrium H^+ concentration from the pH values, measured in the titration experiments. For the equilibrium calculations, the stoichiometric water ionic product (pKw) is also needed to calculate [H^+] values in basic conditions. […] For the calculation of the equilibrium constants the program PSEQUAD (Zekany and Nagypal, [1985]) was used.
2. Protonation and complexation equilibria of DOTPI and
The protonation processes of the DOTPI and DOTPI(Chx)4, ligands have been studied by pH-potentiometry. The protonation constants (logKiH) of ligands are defined according to Eq. (1).
The stability and protonation constants of DOTPI and DOTPI(Chx)4 complexes with several metal ions were determined by pH-potentiometric and UV/Vis spectrophotometric, methods.
The stability and protonation constants of the metal complexes formed with the DOTPI and […]

protonation constant Cu2LH: 5.04 (3)
protonation constant Cu2LH2: 4.71 (5)
protonation constant CuH2L: 5.07 (1)
protonation constant CuH3L: 4.49 (2)
protonation constant CuH4L: 4.20 (2)
protonation constant CuH5L: 2.35 (3)
protonation constant CuHL: 5.68 (2)
stability constant of dinuclear complex Cu2L: 4.49 (6)
Structure (SMILES): O=C(O)CCP(=O)(O)CN1CCN(CP(=O)(O)CCC(=O)O)CCN(CP(=O)(O)CCC(=O)O)CCN(CP(=O)(O)CCC(=O)O)CC1 [DOTPI, 1,4,7,10-tetraazacyclododecane-1,4,7,10-tetrakis[methylene(2-carboxyethylphosphinic acid)]]
